ChEMBL document CHEMBL1137634, “A cysteine protease inhibitor cures Chagas' disease in an immunodeficient-mouse model of infection” (2007)
Activity calls are given as the source filed them. No cut-off for these calls is given here.

Legend:
[1] = tested on: Trypanosoma cruzi; assay: Antitrypanosomal activity against Trypanosoma cruzi CA1/72 infected in recombinase Rag1 deficient mouse assessed as Trypanosoma-specific kinetoplast DNA in liver at 50 mg/kg, ip twice daily for 27 days by PCR; type: functional, organism-based; design: dose 50 mg/kg
[2] = tested on: Trypanosoma cruzi; assay: Antitrypanosomal activity against Trypanosoma cruzi CA1/72 infected in recombinase Rag1 deficient mouse assessed as Trypanosoma-specific kinetoplast DNA in spleen at 50 mg/kg, ip twice daily for 27 days by PCR; type: functional, organism-based; design: dose 50 mg/kg
[3] = tested on: Trypanosoma cruzi; assay: Antitrypanosomal activity against Trypanosoma cruzi CA1/72 infected in recombinase Rag1 deficient mouse assessed as protection against liver infection at 50 mg/kg, ip twice daily for 27 days measured at 16 to 24 weeks postinfection by histopathology; type: functional, organism-based; design: dose 50 mg/kg
[4] = tested on: Trypanosoma cruzi; assay: Antitrypanosomal activity against Trypanosoma cruzi CA1/72 infected in recombinase Rag1 deficient mouse assessed as protection against heart infection at 50 mg/kg, ip twice daily for 27 days measured at 16 to 24 weeks postinfection by histopathology; type: functional, organism-based; design: dose 50 mg/kg
[5] = tested on: Trypanosoma cruzi; assay: Antitrypanosomal activity against Trypanosoma cruzi CA1/72 infected in recombinase Rag1 deficient mouse assessed as protection against spleen infection at 50 mg/kg, ip twice daily for 27 days measured at 16 to 24 weeks postinfection by histopathology; type: functional, organism-based; design: dose 50 mg/kg
[6] = tested on: Trypanosoma cruzi; assay: Antitrypanosomal activity against Trypanosoma cruzi CA1/72 infected in recombinase Rag1 deficient mouse assessed as survival from lethal infection at 50 mg/kg, ip twice daily for 27 days; type: functional; details: route intraperitoneal
[7] = tested on: Trypanosoma cruzi; assay: Antitrypanosomal activity against Trypanosoma cruzi CA1/72 infected in recombinase Rag1 deficient mouse assessed as protection against lethal acute Chaga's disease at 50 mg/kg, ip twice daily for 27 days; type: functional; details: route intraperitoneal
[8] = tested on: Trypanosoma cruzi; assay: Antitrypanosomal activity against Trypanosoma cruzi CA1/72 infected in recombinase Rag1 deficient mouse assessed as Trypanosoma-specific kinetoplast DNA in blood at 50 mg/kg, ip twice daily for 27 days by PCR; type: functional, organism-based; design: dose 50 mg/kg
[9] = tested on: Trypanosoma cruzi; assay: Antitrypanosomal activity against Trypanosoma cruzi CA1/72 infected in recombinase Rag1 deficient mouse blood assessed as Trypanosoma-specific kinetoplast DNA in blood at 50 mg/kg, ip twice daily for 27 days measured after 80 to 160 days post-infection by PCR; type: functional, organism-based; design: dose 50 mg/kg
[10] = tested on: Trypanosoma cruzi; assay: Antitrypanosomal activity against Trypanosoma cruzi CA1/72 infected in recombinase Rag1 deficient mouse assessed as Trypanosoma-specific kinetoplast DNA in heart at 50 mg/kg, ip twice daily for 27 days by PCR; type: functional, organism-based; design: dose 50 mg/kg
[11] = tested on: Trypanosoma cruzi; assay: Antitrypanosomal activity against Trypanosoma cruzi CA1/72 infected in recombinase Rag1 deficient mouse assessed as protection against colon infection at 50 mg/kg, ip twice daily for 27 days measured at 16 to 24 weeks postinfection by histopathology; type: functional, organism-based; design: dose 50 mg/kg
[12] = tested on: Trypanosoma cruzi; assay: Antitrypanosomal activity against Trypanosoma cruzi CA1/72 infected in recombinase Rag1 deficient mouse assessed as protection against skeletal muscle infection at 50 mg/kg, ip twice daily for 27 days measured at 16 to 24 weeks postinfection by histopathology; type: functional, organism-based; design: dose 50 mg/kg; details: Muscle tissue
[13] = tested on: Trypanosoma cruzi; assay: Antitrypanosomal activity against Trypanosoma cruzi CA1/72 infected in immunocompetent C3HeB/FeJ mouse assessed as protection against lethal acute Chaga's disease at 50 mg/kg, ip twice daily for 27 days; type: functional; details: route intraperitoneal

Structure (SMILES): CN1CCN(C(=O)N[C@@H](Cc2ccccc2)C(=O)N[C@H](/C=C/S(=O)(=O)c2ccccc2)CCc2ccccc2)CC1 [K-777]
- Activity [1]: Active
- Activity [2]: Active
- Activity [3]: Active
- Activity [4]: Active
- Activity [5]: Active
- Survival [6]: 150 days
- Activity [7]: 60%
- Activity [8]: inactive
- Activity [9]: Active
- Activity [10]: Active
- Activity [11]: Active
- Activity [12]: Active
- Activity [13]: 100%
